In data set [1] the target is T1, Na^+ /K^+ /2Cl^- cotransport (Rattus norvegicus, UniProt E9PTX9).
T1 construct: erythrocyte membrane in normotensive rats; from tissue; host or cells: rat erythrocytes
T1 sequence (E9PTX9 1-1203): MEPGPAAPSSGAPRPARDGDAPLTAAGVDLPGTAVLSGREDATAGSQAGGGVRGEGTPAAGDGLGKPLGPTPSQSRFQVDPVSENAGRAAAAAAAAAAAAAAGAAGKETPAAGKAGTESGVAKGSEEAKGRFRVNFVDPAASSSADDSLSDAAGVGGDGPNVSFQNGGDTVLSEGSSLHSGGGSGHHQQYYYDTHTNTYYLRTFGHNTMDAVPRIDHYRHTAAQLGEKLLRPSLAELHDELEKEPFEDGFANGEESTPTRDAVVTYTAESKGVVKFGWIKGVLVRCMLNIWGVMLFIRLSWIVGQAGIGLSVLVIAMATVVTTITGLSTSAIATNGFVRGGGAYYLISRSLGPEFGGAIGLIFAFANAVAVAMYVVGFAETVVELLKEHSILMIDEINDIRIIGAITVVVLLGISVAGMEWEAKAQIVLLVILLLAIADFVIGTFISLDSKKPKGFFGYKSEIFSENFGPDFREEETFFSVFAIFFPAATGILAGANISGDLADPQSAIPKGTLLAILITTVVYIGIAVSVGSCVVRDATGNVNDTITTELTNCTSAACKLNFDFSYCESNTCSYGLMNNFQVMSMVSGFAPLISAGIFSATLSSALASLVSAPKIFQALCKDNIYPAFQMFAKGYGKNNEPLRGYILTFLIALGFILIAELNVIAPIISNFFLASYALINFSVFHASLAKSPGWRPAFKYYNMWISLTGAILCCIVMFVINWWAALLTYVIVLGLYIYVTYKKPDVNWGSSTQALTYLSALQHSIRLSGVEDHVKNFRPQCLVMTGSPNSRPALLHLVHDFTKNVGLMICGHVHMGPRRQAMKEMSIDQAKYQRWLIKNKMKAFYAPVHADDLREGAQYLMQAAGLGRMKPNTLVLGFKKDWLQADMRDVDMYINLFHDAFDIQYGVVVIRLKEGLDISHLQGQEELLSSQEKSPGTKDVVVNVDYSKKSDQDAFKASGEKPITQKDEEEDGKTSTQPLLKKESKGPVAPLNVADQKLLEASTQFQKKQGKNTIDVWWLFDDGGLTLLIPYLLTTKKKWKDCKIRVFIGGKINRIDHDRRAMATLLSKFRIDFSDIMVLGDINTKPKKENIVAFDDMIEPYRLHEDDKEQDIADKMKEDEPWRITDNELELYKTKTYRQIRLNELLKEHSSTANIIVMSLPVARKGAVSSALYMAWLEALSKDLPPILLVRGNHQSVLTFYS
Briefly: Inhibition of Na+/K+/2Cl- cotransport, erythrocyte membrane in normotensive rats. It is filed as in vivo. An excerpt: (§1) The 50% inhibitory concentration for Na^+ /K^+ /2Cl^- cotransport in vivo is decreased, in the case of the compound of Example 3, by about 60% relative to Torasemide (luminal membrane of the ascending branch of the loop of Henle in the nephron of perfused rabbits (Arzneim. Forsch. (1988) 38 (1a), 151-152)), and by 85% relative to Torasemide in the case of the compound of Example 10 (erythrocyte membrane in normotensive rats).
This decrease of the 50% inhibitory concentration of the Torasemide for Na^+ /K^+ /[…] co-transport (erythrocyte membrane in normotensive rats) reachs even 90% in the case of the compound of Example 18.

In data set [2] the test system is Cl^- passage in the kidneys. Briefly: Inhibition of Cl- passage in the kidneys in vivo. The text has this:
The 50% inhibitory concentration for Cl^- passage in the kidneys in vivo is decreased, in the case of the compound of Example 8 by about 50% relative to Torasemide and in the case of the compound of Example 18 by 75%.

Data set [3] is described as follows: Determination of partition coefficients between n-octanol and water. It is filed as physicochemical. Conditions: pH=7.4, logarithm to base 10. As to the method: The coefficients of partition between n-octanol and water were determined at pH=7.4 by conventional techniques and are expressed as logarithms to base 10 (Log P).
A short description of data set [4]: Determination of pKa (proton acidity constant of SO2-NH-CO-). It is filed as physicochemical. The text has this: The pKa values represent the proton acidity constants of SO2 --NH--CO--.
In data set [5] the target is T2, Na^+ /K^+ /2Cl^- cotransport (Oryctolagus cuniculus, UniProt P55015).
T2 construct: luminal membrane of the ascending branch of the loop of Henle in the nephron of perfused rabbits; from tissue; host or cells: rabbit nephron, ascending branch of the loop of Henle
T2 sequence (P55015 1-1099): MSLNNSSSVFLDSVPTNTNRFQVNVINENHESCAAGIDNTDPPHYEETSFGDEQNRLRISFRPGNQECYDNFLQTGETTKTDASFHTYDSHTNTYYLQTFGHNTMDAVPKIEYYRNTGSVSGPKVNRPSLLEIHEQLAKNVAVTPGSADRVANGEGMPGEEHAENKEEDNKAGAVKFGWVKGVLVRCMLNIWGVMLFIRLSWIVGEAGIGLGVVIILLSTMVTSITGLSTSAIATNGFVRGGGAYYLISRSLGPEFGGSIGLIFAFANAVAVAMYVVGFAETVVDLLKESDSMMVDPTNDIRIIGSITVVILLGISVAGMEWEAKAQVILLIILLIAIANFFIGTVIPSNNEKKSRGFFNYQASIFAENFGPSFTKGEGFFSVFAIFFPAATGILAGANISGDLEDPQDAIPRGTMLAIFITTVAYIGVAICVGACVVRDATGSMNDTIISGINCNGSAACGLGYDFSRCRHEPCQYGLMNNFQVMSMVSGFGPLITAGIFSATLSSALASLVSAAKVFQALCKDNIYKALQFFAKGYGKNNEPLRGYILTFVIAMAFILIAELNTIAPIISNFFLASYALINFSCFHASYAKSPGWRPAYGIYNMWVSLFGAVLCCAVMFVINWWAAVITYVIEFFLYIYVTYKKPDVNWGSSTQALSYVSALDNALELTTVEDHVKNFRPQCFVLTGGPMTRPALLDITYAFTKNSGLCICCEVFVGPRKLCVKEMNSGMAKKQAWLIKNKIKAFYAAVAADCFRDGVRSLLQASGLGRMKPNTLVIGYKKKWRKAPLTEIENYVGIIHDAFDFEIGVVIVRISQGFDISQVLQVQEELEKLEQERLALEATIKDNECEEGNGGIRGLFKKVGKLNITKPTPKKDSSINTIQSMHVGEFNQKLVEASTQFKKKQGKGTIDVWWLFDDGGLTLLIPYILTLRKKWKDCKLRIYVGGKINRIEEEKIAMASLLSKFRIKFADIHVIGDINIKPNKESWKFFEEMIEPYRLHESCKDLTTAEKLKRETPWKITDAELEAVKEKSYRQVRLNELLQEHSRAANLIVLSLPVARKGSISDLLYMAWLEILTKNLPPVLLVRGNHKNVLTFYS
Briefly: Inhibition of Na+/K+/2Cl- cotransport, luminal membrane of the ascending branch of the loop of Henle in the nephron of perfused rabbits. Conditions: in vivo.
Text: as §1

As to `O=C(NC1CCCCCC1)NS(=O)(=O)c1cnccc1NC1CCCCCC1` [Example 18, N-((4-(cycloheptylamino)pyrid-3-yl)sulfonyl)-N'-cycloheptylurea], the “decrease of the 50% inhibitory concentration for Na+/K+/2Cl- cotransport relative to Torasemide” value in data set [1] is on record as 90%. Besides, the “decrease of the 50% inhibitory concentration for Cl- passage in the kidneys relative to Torasemide” value in data set [2] was determined as 75%.
In data set [3], `O=C(NC1CCCCCC1)NS(=O)(=O)c1cnccc1NC1CCCCCCC1` [Example 8, N-((4-(cyclooctylamino)pyrid-3-yl)sulfonyl)-N'-cycloheptylurea] had a logD of 2.45. In data set [4], this compound displayed a pKa of 9.15. Also, the “decrease of the 50% inhibitory concentration for Cl- passage in the kidneys relative to Torasemide” value in data set [2] was “about 50%”.
In data set [3], `O=C(NC1CCCCC1)NS(=O)(=O)c1cnccc1NC1CCCCCC1` [Example 2, N-((4-(cycloheptylamino)pyrid-3-yl)sulfonyl)-N'-cyclohexylurea] returned a logD of 1.67. Also, the pKa in data set [4] is 9.39.
The like results for `O=C(NC1CCCCC1)NS(=O)(=O)c1cnccc1NC1CCCCC1` [Example 1, N-((4(-cyclohexylamino)pyrid-3-yl)sulfonyl)-N'-cyclohexylurea] were, in that order, 1.33 and 9.02.
Take `O=C(NC1CCCCC1)NS(=O)(=O)c1cnccc1NC1CCCCCCC1` [Example 10, N-((4-(cyclooctylamino)pyrid-3-yl)sulfonyl)-N'-cyclohexylurea]: the “decrease of the 50% inhibitory concentration for Na+/K+/2Cl- cotransport relative to Torasemide” value in data set [1] is 85%. Moreover, in data set [3], the logD came out at 2.06. The compound also gave a pKa in data set [4] of 8.95.
Turning to `Cc1cccc(Nc2ccncc2S(=O)(=O)NC(=O)NC(C)C)c1` [Torasemide, reference compound], the logD in data set [3] was 0.449. In data set [4], this compound registered a pKa of 6.82.
In the same order, the values of `O=C(NC1CCCCCCC1)NS(=O)(=O)c1cnccc1NC1CCCCC1` [Example 7, N-((4-(cyclohexylamino)pyrid-3-yl)sulfonyl)-N'-cyclooctylurea] are 2.07 and 9.13.
`O=C(NC1CCCCCCC1)NS(=O)(=O)c1cnccc1NC1CCCCCCC1` [Example 3, N-((4-(cyclooctylamino)pyrid-3-yl)sulfonyl-N'-cyclooctylurea nitrate]: the logD in data set [3] was 2.7. This compound displayed a pKa in data set [4] of 7.74. The “decrease of the 50% inhibitory concentration for Na+/K+/2Cl- cotransport relative to Torasemide” value in data set [5] was “about 60%”.

The logD is the decadic logarithm of the distribution of all forms, ionised or not, between an organic phase and buffer at a given pH. Usually pKa stands for the negative logarithm of the acid dissociation constant. Low readings indicate a group that gives up its proton readily, high ones a group that holds its proton tightly.

The values are drawn from patent US5166162A, “Pyridylsulfonylurea and pyridylsulfonylthiourea compounds” (Adir et Compagnie, priority 1990, dated 1992).
